The values that follow come from ChEMBL document CHEMBL1201862, “PubChem BioAssay data set” (2004).

Some test systems named below: EKVX; Malme-3M; A498; KM12; 786-0; TK-10; SK-OV-3; OVCAR-8; SK-MEL-2; UACC-257; NCI-H23; OVCAR-4; SW-620; SN12C; SF-295; HOP-92; HL-60; OVCAR-3; UO-31; COLO 205.
Common to all, as to experiment: NCI anticancer screen, dose series, 48 h

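96-well plates; 48 h exposure; 5 concentrations. Endpoints by linear interpolation between flanking doses. Not reached: highest tested concentration assigned. Abbreviation: GI50, concentration required for 50% inhibition of growth.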 The source made the active and inactive calls. Rule as the data show it: active = GI50 up to about 1.1 µM and inactive = higher.

For `O=C1CSC(/C(=C\c2ccc(Cl)cc2)c2nc3ccccc3[nH]2)=N1`, the GI50 is 17 µM (inactive) with EKVX; 16.7 µM (inactive) in the assay on Malme-3M; 4.19 µM (inactive) in the assay on A498; 13.2 µM (inactive) with KM12; 13.6 µM (inactive) with 786-0; 11.8 µM (inactive) in the assay on TK-10. In addition, the GI50 was 11.5 µM (inactive) with SK-OV-3; 7.91 µM (inactive) in the assay on OVCAR-8; 17.9 µM (inactive) in the assay with SK-MEL-2; 16.2 µM (inactive) in the assay with UACC-257; 14.8 µM (inactive) with NCI-H23; 16.1 µM (inactive) with OVCAR-4. Further, the GI50 was 18.5 µM (inactive) in the assay on SW-620; 17.8 µM (inactive) with SN12C; 9.2 µM (inactive) in the assay with SF-295; 12.4 µM (inactive) in the assay on HOP-92; 26.5 µM (inactive) with HL-60; 7.78 µM (inactive) in the assay with OVCAR-3. For the same molecule, the GI50 with UO-31 is 3.03 µM (inactive); with COLO 205, 19.1 µM (inactive).
Regarding `CC(=O)[C@@]1(O)CC[C@H]2[C@@H]3C[C@H](C)C4=CC(=O)CC[C@]4(C)[C@H]3[C@@H](O)C[C@@]21C`, the GI50 was 68.7 µM (inactive) in the assay with EKVX; > 100 µM (inactive) with Malme-3M; > 100 µM (inactive) in the assay with A498; > 100 µM (inactive) in the assay with KM12; > 100 µM (inactive) in the assay with 786-0; > 100 µM (inactive) in the assay with TK-10. The GI50 with SK-OV-3, in the assay on OVCAR-8, in the assay with SK-MEL-2, with UACC-257, in the assay with NCI-H23 and in the assay with OVCAR-4 was > 100 µM (inactive) in each case. The GI50 in the assay on SW-620, in the assay on SN12C, with SF-295, with HOP-92, in the assay on HL-60 and with OVCAR-3 was > 100 µM (inactive) each time. In addition, the GI50 with UO-31 and in the assay on COLO 205 was > 100 µM (inactive) each time.
`CCN(CC)c1nnc(CCCCCCCCc2nnc(N(CC)CC)o2)o1`: the GI50 in the assay with EKVX, in the assay on Malme-3M, with A498, in the assay on KM12, in the assay on 786-0 and in the assay on TK-10 was > 100 µM (inactive) each time. Also, the GI50 in the assay on SK-OV-3, with OVCAR-8, in the assay on SK-MEL-2, with UACC-257, with NCI-H23 and with OVCAR-4 was > 100 µM (inactive) each time. Moreover, the GI50 with SW-620, in the assay with SN12C, in the assay on SF-295, with HOP-92, in the assay on HL-60 and in the assay with OVCAR-3 was > 100 µM (inactive) throughout. The GI50 in the assay with UO-31 and with COLO 205 was > 100 µM (inactive) in each case.
Take `CCOC(=O)Nc1cc2c(c(N)n1)N=C(c1ccc3ccccc3c1)CN2`: the GI50 in the assay with EKVX is 2.51 µM (inactive); in the assay on Malme-3M, 0.292 µM (active); in the assay with A498, 0.861 µM (active); with KM12, 0.0715 µM (active); in the assay on 786-0, 0.0809 µM (active); with TK-10 it was 4.36 µM (inactive). Also, the GI50 in the assay on SK-OV-3 was 0.2 µM (active); with OVCAR-8, < 0.0208 µM (active); in the assay on SK-MEL-2, 0.373 µM (active); in the assay with UACC-257, 0.815 µM (active); in the assay with NCI-H23, 0.325 µM (active); in the assay with OVCAR-4 it was 1.44 µM (inactive). In addition, the GI50 was 0.0485 µM (active) with SW-620; 0.0711 µM (active) with SN12C; 0.0281 µM (active) in the assay on SF-295; 0.275 µM (active) in the assay with HOP-92; 0.0167 µM (active) with HL-60; 0.0494 µM (active) in the assay on OVCAR-3. For the same molecule, the GI50 in the assay with UO-31 is 0.301 µM (active); in the assay with COLO 205, 0.499 µM (active).
Regarding `COCn1c(=O)n(C)c(=O)c2c1nc1c(c(=O)n(C)c(=O)n1COC)[n+]2[O-]`, the GI50 in the assay on EKVX is 7.85 µM (inactive); with Malme-3M, 5.47 µM (inactive); in the assay on A498, 31.2 µM (inactive); in the assay on KM12, 13.3 µM (inactive); in the assay on 786-0, 18.4 µM (inactive); in the assay on TK-10 it was 8.69 µM (inactive). Besides, the GI50 with SK-OV-3 is 7.03 µM (inactive); with OVCAR-8 it was 5.7 µM (inactive); in the assay on SK-MEL-2, 12.6 µM (inactive); in the assay with UACC-257 it was 18.2 µM (inactive); in the assay on NCI-H23, 3.29 µM (inactive); with OVCAR-4 it was 4.85 µM (inactive). Besides, the GI50 in the assay on SW-620 is 11.1 µM (inactive); with SN12C it was 7.08 µM (inactive); with SF-295 it was 7.55 µM (inactive); in the assay with HOP-92, 3.61 µM (inactive); with HL-60, 12.7 µM (inactive); in the assay with OVCAR-3 it was 10.6 µM (inactive). Moreover, the GI50 in the assay on UO-31 was 24.9 µM (inactive); in the assay with COLO 205, 12.5 µM (inactive).
As to `CC(=O)O/C=C\OC1CCCC1`, the GI50 in the assay with EKVX, in the assay with Malme-3M, with A498, in the assay with KM12, in the assay on 786-0 and in the assay with TK-10 was > 100 µM (inactive) in each case. The GI50 in the assay on SK-OV-3, in the assay on OVCAR-8, in the assay on SK-MEL-2, in the assay on UACC-257, in the assay with NCI-H23 and in the assay on OVCAR-4 was > 100 µM (inactive) throughout. Further, the GI50 in the assay on SW-620, with SF-295, with HOP-92, in the assay with HL-60, with OVCAR-3 and with UO-31 was > 100 µM (inactive) throughout. Moreover, the GI50 in the assay on COLO 205 is > 100 µM (inactive).
As for `CO/N=C(/C(=O)OC)c1ccccc1COc1cccc(C(F)(F)F)c1`, the GI50 in the assay on EKVX is 7.62 µM (inactive); with Malme-3M, 2.3 µM (inactive); in the assay with A498, 43.5 µM (inactive); in the assay on KM12, 18.8 µM (inactive); in the assay with 786-0 it was 30.7 µM (inactive); in the assay with TK-10, 11.4 µM (inactive). Further, the GI50 is 38.9 µM (inactive) in the assay with SK-OV-3; 36.1 µM (inactive) in the assay on SK-MEL-2; 8.51 µM (inactive) in the assay on UACC-257; 27.9 µM (inactive) in the assay on NCI-H23; 19.5 µM (inactive) in the assay on OVCAR-4; 42.5 µM (inactive) in the assay on SW-620. Also, the GI50 in the assay on SN12C is 43.9 µM (inactive); with SF-295, 7.23 µM (inactive); in the assay on HOP-92, 36.2 µM (inactive); with HL-60, 9.68 µM (inactive); in the assay on OVCAR-3, 11.6 µM (inactive); in the assay with UO-31, 39.8 µM (inactive). Moreover, the GI50 in the assay on COLO 205 is 41.8 µM (inactive).
For `N/N=C(\C(=O)Nc1ccc(Cl)cc1Cl)C(c1cnc2ccccc2n1)[N+](=O)[O-]` (stereo not drawn), the GI50 in the assay with EKVX, with Malme-3M, in the assay with A498, in the assay with KM12, in the assay on 786-0 and in the assay on TK-10 was > 100 µM (inactive) in each case. Moreover, the GI50 with SK-OV-3, with OVCAR-8, in the assay with SK-MEL-2, in the assay with UACC-257, in the assay on NCI-H23 and in the assay with OVCAR-4 was > 100 µM (inactive) throughout. Besides, the GI50 in the assay with SW-620, with SN12C, in the assay on SF-295, in the assay on HOP-92, in the assay on HL-60 and in the assay with OVCAR-3 was > 100 µM (inactive) each time. In the assay with UO-31, the GI50 was 44.2 µM (inactive).
Consider `COc1cccc(NC(=O)/C(CC(=O)CC(c2ccccc2)c2c(O)c3ccccc3oc2=O)=N\NC(C)(C)C)c1OC` (stereo not drawn), for which the GI50 is 43.4 µM (inactive) with EKVX; > 100 µM (inactive) in the assay on Malme-3M; > 100 µM (inactive) with A498; 34 µM (inactive) in the assay on KM12; > 100 µM (inactive) with 786-0; > 100 µM (inactive) with TK-10. The GI50 in the assay on SK-OV-3, in the assay on OVCAR-8, with SK-MEL-2, in the assay on UACC-257, with OVCAR-4 and with SW-620 was > 100 µM (inactive) each time. Further, the GI50 is > 100 µM (inactive) in the assay with SF-295; 17.6 µM (inactive) in the assay on HOP-92; 22.5 µM (inactive) with HL-60; 78.9 µM (inactive) in the assay on OVCAR-3; 72.1 µM (inactive) with UO-31; > 100 µM (inactive) in the assay on COLO 205.
For the molecule `O=C(Cn1c(C(=O)/C=C/c2ccc(Cl)cc2)nc2ccccc21)c1ccc(Cl)cc1`, the GI50 was 26.5 µM (inactive) in the assay on EKVX; 20.9 µM (inactive) in the assay with Malme-3M; 32.3 µM (inactive) in the assay with A498; 7.26 µM (inactive) in the assay on KM12; 20.6 µM (inactive) in the assay with 786-0; 30.8 µM (inactive) with TK-10. Further, the GI50 in the assay on SK-OV-3 was 26.9 µM (inactive); with SK-MEL-2, 17.6 µM (inactive); with UACC-257, 24.1 µM (inactive); with NCI-H23, 19.5 µM (inactive); in the assay on OVCAR-4, 13.4 µM (inactive); in the assay on SW-620 it was 11.4 µM (inactive). The GI50 with SN12C is 14.1 µM (inactive); in the assay with HOP-92, 34.3 µM (inactive); in the assay on HL-60 it was 10.1 µM (inactive); with OVCAR-3, 8.87 µM (inactive); in the assay on UO-31, 19.8 µM (inactive); in the assay on COLO 205, 16.5 µM (inactive).
